How the values were obtained:
Type in all cases: physicochemical
[1] = Solubility at 25° C. (slurried in solvent 24 hours, liquid quantified by HPLC)
Source text: Solids were checked by XRPD and the liquid was submitted for quantification by HPLC.

pKa determination = conditions: amidine
Experimental: This can be performed on a Sirius GlpKa instrument with a D-PAS attachment. Measurements can be made by UV in aqueous and by potentiometric in methanol and water mixtures at 25° C. The titration media is ionic strength adjusted with 0.15 M KCl. The values found in the methanol and water mixtures are corrected to 0% co-solvent via a Yasuda-Shedlovsky extrapolation. The data can be refined using Refinement Pro software version 1.0. Prediction of pKa values can be made using ACD pKa prediction software Ver. 8.08.

[2] = Physical and chemical stability on storage
Source text: FIG. 10 provides XRPD patterns from turnover experiments. A is an XRPD of Form II.

SMILES | Solubility at 25° C. ([1]; MTBE) | pKa (pKa determination) | Solubility at 25° C. ([1]; Acetone) | Solubility at 25° C. ([1]; Anhydrous ethanol (0.03% water)) | Solubility at 25° C. ([1]; DMF) | Solubility at 25° C. ([1]; IPA) | Solubility at 25° C. ([1]; MeOH, yellow solvate formed) | Solubility at 25° C. ([1]; in ethanol (summary table), listed as Betrixaban Maleate Form II) [mg/mL in ethanol] | time remaining physically and chemically stable ([2]; 25° C. and 60% RH) | time remaining physically and chemically stable ([2]; 40° C. and 75% RH)
COc1ccc(NC(=O)c2ccc(C(=N)N(C)C)cc2)c(C(=O)Nc2ccc(Cl)cn2)c1 [Form I, reference compound] | 0.001 | 11.4 |  |  |  |  |  |  |  | 
COc1ccc(NC(=O)c2ccc(C(=N)N(C)C)cc2)c(C(=O)Nc2ccc(Cl)cn2)c1 [Form II] | 0.01 |  | 0.99 | 4.8 | >246 | 0.63 | 37.9 (yellow | 4.8 | at least 6 months | at least 6 months

Source: US8946269B2, “Crystalline forms of a factor Xa inhibitor” (Portola Pharmaceuticals, Inc., priority 2010, dated 2015)
